We go through one molecule from paper PMC10746708, “A small molecule iCDM-34 identified by in silico screening suppresses HBV DNA through activation of aryl hydrocarbon receptor” (Cell Death Discovery, 2023).

Data set [1] can be described thus: Liver microsomal stability, rat. Type of data set: in vitro ADME. Conditions: rat liver microsomes. The protocol: (§1) Liver microsome stability studies (human, mouse, and rat) were performed at Sumika Chemical Analysis Service (Osaka, Japan) by following an established procedure. A mixture of 1 μM of substrate, 0.5 mg protein/mL of microsomes, and […] β-NADPH was incubated for 30 or 60 min and % remaining substrate was quantitatively measured by LC-MS/MS.

Data set [2] is described as follows: Liver microsomal stability, mouse. Type of data set: in vitro ADME. Conditions: mouse liver microsomes. The protocol:
as §1
For orientation: Liver microsomes are a subcellular fraction often used to study metabolism.

The nature of data set [3]: Liver microsomal stability, human. It counts as in vitro ADME. Conditions: human liver microsomes. The protocol: as §1
Data set [4] concerns HBV genotype C. As to the kind of experiment: Anti-HBV activity in HBV-infected PXB cells (HBV DNA by qPCR). Conditions: Hepatitis B virus, 168 h; HBV genotype C-infected PXB cells, 0.03–100 µM for 7 days, qPCR; read-out: half maximal inhibitory concentration, cellular HBV DNA. Type of data set: cell-based. The protocol:
PXB cells (primary cultured human hepatocytes) were purchased from PhoenixBio (Higashi-Hiroshima, Japan) and cultured on collagen type I-coated 96- or 24-well plates in hepatocyte clonal growth medium at 37 °C and 5 % CO2 as previously described. RealTime-Glo MT Cell Viability Assay (Promega) and XTT assay were performed according to a previously established protocol.
PXB cells were plated on 96-well plate and infected with three genome equivalents per cell of HBV C_AT [33], and the medium was changed every 3 or 4 days. […] After treatment with these compounds, cellular DNA, medium DNA, and total RNA were automatically purified as per our previously established protocol. RNA purification of total RNA from cultured cells in the 24-well plate was performed using the RNeasy Mini Kit (Qiagen, Germantown, MD, USA) according to the manufacturer’s instructions.
HBV DNA copy numbers were determined using TaqMan Gene Expression Master Mix (Thermo Fisher Scientific) or Probe qPCR Mix (Takara Bio), specific primers, and probes in a qPCR system (Light Cycler 96 System, Roche, Basel, Switzerland or CFX96 Touch Real-Time PCR Detection System, Bio-Rad Laboratories, Hercules, CA, USA). The specific primers and probe used for detection of HBV DNA were as follows: forward primer: 5′-[…]-3′, reverse primer: 5′-[…]-3′, and probe: 5′-[FAM] […][TAM]-3′.
For orientation: Real-time PCR tracks product formation cycle by cycle.

Data set [5] has as its system phospho-SAMHD1. As to the kind of experiment: Western blotting of phospho-SAMHD1 in HepG2-NTCP-C4 cells. It counts as cell-based, human. Conditions: 30 μM, 1 day. Here is the method:
HepG2-NTCP-C4 cells were treated with 30 μM iCDM-17 and iCDM-34 for 1 day. The cells were lyzed with 20 mM TrisHCl pH 7.5 containing 100 mM NaCl, 10 mM EDTA, 1% TritonX-100, 1% Sodium deoxycholate, PhosSTOP (Roche), Complete EDTA free. The lysates were sonicated 30 s and mixed for 1 h with rotation at 4 °C. The lysates were centrifuged at 15,000 rpm for 10 min at 4 °C. The supernatants were analyzed by Western blotting using anti-phospho-SAMHD1 (Thr592) (Cell signaling technology, 89930, 1/1000), anti-SAMHD1 (Cell signaling technology, 49158, 1/1000), and β−actin (Santa Cruz, 1/1000).
Background: A western blot detects proteins with antibodies after separation by electrophoresis.

In data set [6] the test system is JAK/STAT signaling. As to the kind of experiment: Western blotting of phospho-STAT1, STAT2, STAT3 in HCV replicon cells. Conditions: 30 μM, 24 h. Type of data set: cell-based, human. The protocol:
HCV replicon cells were treated with 30 μM CDM-3008, iCDM-17, and iCDM-34 for 1 day. The cells were lyzed with 1 x SDS sample buffer containing PhosStop, Complete EDTA free, and 1 mM EDTA. After sonication for 30 s, the lysates were centrifuged at 12,000g for 10 min at 4 °C, and then the supernatants were collected. After reducing the 20 μg of supernatants with 50 mM DTT at 98 °C for 2 min, the samples were separated by SDS-PAGE. STAT1, STAT2, STAT3, pSTAT1, pSTAT2, and pSTAT3 were detected by Western blotting using anti-STAT1 (9175, 1/1000), STAT2 (72604, 1/1000), STAT3 (12640, 1/1000), pSTAT1 (Y701) (7649, 1/1000), pSTAT2 (Y690) (88410, 1/1000), and pSTAT3 (Y705) (9145, 1/1000) antibodies (Cell signaling technology, Massachusetts, USA).

Where [7] appears, read: 1 μM substrate, 0.5 mg protein/mL, 30 min.
Setting [8] is: 1 μM substrate, 0.5 mg protein/mL, 60 min.

A word on the half-life: it is the time needed for the level to fall by half in the phase considered. A low value points to fast loss. Usually amount remaining stands for what is left of the initial amount, in per cent. In the case of `COc1ccc(CNC(=O)c2nc(-c3ccc4c(c3)OCO4)no2)cc1OC` [iCDM-17], the values for the half-life at 1 μM in data set [1], in data set [2] and in data set [3] were 26.7 min, 34.8 min and 48.6 min, respectively. The figures for the amount remaining at 0.5 h, 1 μM in data set [1] (setting [7]), in data set [2] (setting [7]) and in data set [3] (setting [7]) were 32 ± 0.2%, 45.8 ± 0.6% and 61.4 ± 0.9%, respectively. In addition, the share remaining at 1 h, 1 μM in data set [1] (setting [8]) was 11.6 ± 0.2%; in data set [2] (setting [8]) it was 22.6%; in data set [3] (setting [8]), 42.3 ± 0.1%. The IC50 in data set [4] was found to be 56.6 µM. The phospho-SAMHD1 levels result in data set [5] was “lower than pre-treatment levels”. Besides, the “phosphorylation of STAT1, STAT2, and STAT3” value in data set [6] is reported as “not induced”.
